The source of these data is patent publication US11298412B2, “Sphingoid compounds for prophylaxis and/or therapy of coronaviridae infection” (priority 2020, dated 2022).

In one series the test system is rhinovirus 2 (RV2). The series is described as follows: RV2 infection of freshly isolated human epithelial cells, Hela cytotoxicity readout. In kind it is cell-based. The conditions noted are these: 10 μM or 20 μM, 24 hrs. The protocol:
10^4 PFU of Rhinovirus 2 or 14 (RV2, RV14) were incubated with freshly isolated human epithelial cells for 24 hrs in the presence of 10 μM or 20 μM sphingosine (SPH) or the corresponding concentration of the solvent octylglucopyranoside (OGP), the cells were pelleted, supernatants completely removed, the cell pellets resuspended in PBS and added to Hela cells. Cells were incubated for 3 days and cytotoxicity as measurement for virus titers was determined. Shown is the mean±SD, n=4, *p<0.001 ANOVA.

Series [1] has as its system lymphocytic choriomeningitis virus (LCMV). In kind it is cell-based, LCMV strain WE.
Series [2] has as its system pp-VSV-SARS-CoV-2 spike. In kind it is cell-based.
The next series relates to Hela cells. The series is described as follows: Effect of sphingosine alone on Hela cells, Trypan Blue cell death. The settings on record: uninfected Hela cells; 10 μM or 20 μM.
In series [3] the test system is rhinovirus strain 2 (RV2). The series is described as follows: Intranasal RV2 infection of wild-type mice, Hela cell death bioassay of nasal bone. The conditions noted are these: 10 μL of 100 μM intranasal 10 min before or 1, 4, 8 hrs after infection, 10^3 PFU, sacrificed after 24 hrs. In kind it is in vivo. The procedure: Mice were infected with 10^3 PFU rhinovirus strain 2 (RV2) in 10 μL PBS. The virus was applied directly into the nose using a blunt ended, plastic coated 30 g needle, that was inserted into the nose approximately 2 mm. Sphingosine (SPH) was applied into the nose of the wild-type mice at a concentration of 100 μM solution in PBS in a volume of 10 μL. Sphingosine was applied either 10 min prior to rhinovirus infection (b.i.) or 1 hr, 4 hrs and 8 hrs after the infection (a.i.). Controls received the solvent, i.e. octylglucopyranoside (OGP) at the same concentration than used when sphingosine was applied, or were left untreated, but infected. Solutions were applied as in 3.2. Mice were sacrificed after 24 hrs, the nasal bone was removed and incubated for 4 days with Hela cells in a 24 well plate. If the nasal epithelial cells are infected, rhinovirus will be released due to the cytopathic effect of the virus and the in vivo infection can then be determined and quantified by measuring cell death of Hela cells as a bioassay. To this end, dead cells were collected, adherent cells were trypsinized, the fractions were combined, washed twice in H/S (20 mM HEPES, 132 mM NaCl, 5 mM KCl, 1 mM CaCl2), 0.7 mM MgCl2, 0.8 mM MgSO4, pH 7.4), stained with Trypan Blue (0.2% final concentration) and dead cells were counted in aliquots of 500 cells as above. […]

Series [4] deals with pp-VSV-SARS-CoV-2 spike. The series is classed as cell-based. The source holds these as a separate data set.
The subject of series [5] is rhinovirus strain RV14 (major strain). The series is described as follows: Rhinovirus RV14 infection of Hela cells, Trypan Blue cell death. The series is classed as cell-based. The settings on record: 10 μM and 20 μM, added 10 min before or 60 min or 240 min after infection, 4 days.
A further series deals with T1, recombinant ACE2 (Homo sapiens, UniProt Q9BYF1).
T1 construct: purchased Abcam ab273687
Put plainly: Binding of lipids to immobilized recombinant ACE2. The settings on record: sphingosine at 2 μM.

In series [6] the target is T2, receptor binding domain of spike S1 / ACE2 (Homo sapiens, UniProt Q9BYF1).
T2 construct: purchased Abcam (Fc-ACE2); Sino Biologicals (RBD-spike) ab273687 (Fc-ACE2); MA FE2702B, #40150-R007 (as printed for RBD-spike)
The series is described as follows: Binding of recombinant RBD of spike S1 to immobilized Fc-ACE2, western blot. (Immunoblotting shows a protein as a band on a membrane.)

Series [7] deals with T3, receptor-binding domain of spike protein / ACE2 (Homo sapiens, UniProt Q9BYF1).
T3 construct: purchased Abcam (Fc-ACE2); Sino Biologicals (RBD-spike) ab273687 (Fc-ACE2); MA FE2702B, #40150-R007 (as printed for RBD-spike)
The series is described as follows: Binding of Fc-ACE2 to RBD-spike immobilized on Ni-agarose, western blot. The conditions noted are these: RBD immobilized on Ni2+-agarose; Fc-ACE2 with 1 μM or 2 μM sphingosine.

The test system of series [8] is rhinovirus strain RV2 (minor strain). Put plainly: Rhinovirus RV2 infection of Hela cells, Trypan Blue cell death. In kind it is cell-based. The conditions noted are these: 10 μM and 20 μM, added 10 min before or 60 min or 240 min after infection, 4 days.
Another series concerns RV1b. Put plainly: Binding of sphingosine to RV1b immobilized on agarose beads, remaining sphingosine by kinase assay. The conditions noted are these: 250 μM sphingosine in PBS pH 7.0; 4 hrs at 4° C. The arrangement: species or system rhinovirus. The procedure:
As a complement to the above study, RV1b (obtained from ATCC) were immobilized to agarose beads and tested for binding of sphingosine (SPH). To this end, we incubated 1 μg/ml anti-RV1b antibodies with 10^6 CFU RV1b for 1 h at 4° C. in H/S, added 50 μL agarose protein A/G beads (Santa Cruz Inc.), incubated for an additional 1 h at 4° C. and washed the immobilized precipitates 5-times in H/S. We resuspended the beads in 500 μL PBS (pH 7.0) containing 250 μM sphingosine. Samples were incubated for 4 hrs at 4° C., pelleted and aliquots of the supernatants were added to 50 mM HEPES (pH 7.4), 250 mM NaCl, 30 mM MgCl2, 0.001 units sphingosine kinase (R&D), 1 mM ATP and 10 μCi [^32P]γATP. The kinase reaction was performed for 1 hr at 30° C., stopped by addition of 20 μl 1N HCl, 800 μl CHCl3/CH3OH/1N HCl (100:200:1, v/v/v), 240 μl CHCl3 and 2 M KCl. Phases were separated, the lower phase was collected, dried, dissolved in 20 μL of CHCl3:CH3OH (1:1, v/v) and separated on Silica G60 thin layer chromatography (TLC) plates using CHCl3/CH3OH/acetic acid/H2O (90:90:15:5, v/v/v/v). The TLC plates were exposed to radiography films, spots were removed from the plates, and the incorporation of [^32P] into sphingosine measured by liquid scintillation counting. Sphingosine was determined using a standard curve of C18-SPH. […]

The subject of the next series is pp-VSV-SARS-CoV-2. Put plainly: Adhesion of pp-VSV-SARS-CoV-2 on Vero cells, flow cytometry with anti-spike S1. The series is classed as cell-based. The settings on record: 20 minutes infection in presence of lipid. (In general: Flow cytometry measures light scatter and fluorescence of single cells or particles in a stream.)

Structures are written as SMILES. “Also recorded” adds a separate entry of the source.

T1 sequence (Q9BYF1 18-805): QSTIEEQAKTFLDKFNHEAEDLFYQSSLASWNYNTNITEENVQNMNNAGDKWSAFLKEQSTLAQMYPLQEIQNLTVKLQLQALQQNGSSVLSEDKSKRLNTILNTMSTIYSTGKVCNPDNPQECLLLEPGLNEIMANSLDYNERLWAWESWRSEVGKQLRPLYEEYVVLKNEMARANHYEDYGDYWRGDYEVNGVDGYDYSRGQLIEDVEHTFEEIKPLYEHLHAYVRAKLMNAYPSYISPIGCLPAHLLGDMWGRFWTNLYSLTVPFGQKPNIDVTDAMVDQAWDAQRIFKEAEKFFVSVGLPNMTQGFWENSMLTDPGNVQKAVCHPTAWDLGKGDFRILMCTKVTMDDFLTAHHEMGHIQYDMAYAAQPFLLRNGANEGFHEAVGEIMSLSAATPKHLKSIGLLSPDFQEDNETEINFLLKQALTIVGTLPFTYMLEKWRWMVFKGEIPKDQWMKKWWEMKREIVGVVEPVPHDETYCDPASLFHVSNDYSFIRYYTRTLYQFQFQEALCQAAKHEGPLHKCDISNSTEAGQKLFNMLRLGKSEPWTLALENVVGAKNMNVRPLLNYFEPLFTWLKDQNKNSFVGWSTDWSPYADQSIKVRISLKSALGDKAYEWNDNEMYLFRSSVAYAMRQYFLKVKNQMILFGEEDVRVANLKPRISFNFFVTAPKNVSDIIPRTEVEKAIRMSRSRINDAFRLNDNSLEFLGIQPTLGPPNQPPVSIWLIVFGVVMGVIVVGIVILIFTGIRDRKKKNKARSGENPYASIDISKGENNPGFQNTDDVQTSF
T2 sequence (Q9BYF1 18-740): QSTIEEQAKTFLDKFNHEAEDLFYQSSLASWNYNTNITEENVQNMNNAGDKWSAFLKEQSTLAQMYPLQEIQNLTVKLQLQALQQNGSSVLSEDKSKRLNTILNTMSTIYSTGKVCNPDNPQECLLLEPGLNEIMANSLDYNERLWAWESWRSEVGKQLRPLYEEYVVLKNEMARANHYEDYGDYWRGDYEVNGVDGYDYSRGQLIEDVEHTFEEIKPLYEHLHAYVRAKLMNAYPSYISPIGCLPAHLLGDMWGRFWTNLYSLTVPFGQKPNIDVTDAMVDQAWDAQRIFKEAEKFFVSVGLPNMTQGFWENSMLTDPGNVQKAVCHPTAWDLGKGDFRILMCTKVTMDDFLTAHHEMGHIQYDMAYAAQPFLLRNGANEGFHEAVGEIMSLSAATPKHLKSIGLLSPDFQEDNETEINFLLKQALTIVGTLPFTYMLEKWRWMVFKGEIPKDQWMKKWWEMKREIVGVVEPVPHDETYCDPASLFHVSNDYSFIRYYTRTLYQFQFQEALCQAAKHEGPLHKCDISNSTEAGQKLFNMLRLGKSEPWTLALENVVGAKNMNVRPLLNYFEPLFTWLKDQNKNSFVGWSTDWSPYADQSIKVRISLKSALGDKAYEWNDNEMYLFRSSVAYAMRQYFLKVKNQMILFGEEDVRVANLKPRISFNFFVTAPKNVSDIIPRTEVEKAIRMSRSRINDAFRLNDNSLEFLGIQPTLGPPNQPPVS
T3 sequence (Q9BYF1 18-740): as above

Turning to `CCCCCCCCCCCCC/C=C/[C@@H](O)[C@@H](N)CO` [sphingosine, (2S,3R,4E)-2-amino-4-octadecene-1,3-diol], the “infection of human epithelial cells by RV2” value with rhinovirus 2 (RV2) is given as “abrogates infection of human epithelial cells; also recorded: prevents infection of freshly isolated human nasal epithelial cells”. In addition, in series [1], the “propagation of LCMV (infectious LCMV particles in the supernatant)” value is “reduced propagation of LCMV; also recorded: inhibits the propagation of LCMV”. In the series with pp-VSV-SARS-CoV-2 spike [2], the “effect on infection of Vero epithelial cells with pp-VSV-SARS-CoV-2” value is given as “marked effect”, the “infection of Vero cells by SARS-CoV-2” value is “prevents infection of Vero cells by SARS-CoV-2” and the “reduction of the infection of Vero epithelial cells with pp-VSV-SARS-CoV-2” value is given as “more than 90%”. For the same molecule, in the series with Hela cells, the “effect of sphingosine itself on the cells (percentage of dead cells)” value is “no effect on the cells”. Further, in [3], the “infection with RV2 in vivo (percentage of dead Hela cells)” value was “prevented; also recorded: prevents infection by RSV2”. Further, the “infection of human nasal epithelial cells with pp-VSV-SARS-CoV-2 spike (eGFP positive cells)” value in the series on pp-VSV-SARS-CoV-2 spike [4] is on record as “prevented infection; also recorded: prevents infection of freshly isolated human nasal endothelial cells by SARS-CoV-2”. Moreover, the “infection with RV14 (percentage of dead cells)” value in series [5] was “prevented the infection; also recorded: prevention of RSV2 and RSV14 infection”. Also, on recombinant ACE2, the “binding of lipid to immobilized recombinant ACE2 (beads)” value was “revealed a binding of sphingosine to ACE2; also recorded: selectively couples to beads with bound recombinant ACE2; also recorded: binds the ACE2 receptor”. The “binding of recombinant receptor binding domain of spike S1 to ACE2” value in series [6] (immobilized Fc-ACE2 pre-incubated with 1 μM or 2 μM sphingosine) is “prevented binding of recombinant receptor binding domain of spike S1 to ACE2”. Also, in series [6] (immobilized Fc-ACE2 pre-incubated with 2 μM sphingosine), the “binding of the recombinant RBD of spike S1 to ACE2” value is “reduced binding of the recombinant RBD of spike S1 to ACE2”. Further, the “interaction of the receptor-binding domain of spike protein with ACE2” value in series [7] was “abolished the interaction of the receptor-binding domain of spike protein with ACE2”. In addition, the “infection with RV2 (percentage of dead cells)” value in series [8] was “prevented the infection; also recorded: prevention of RSV2 and RSV14 infection”. Further, the “binding of sphingosine to RV1b-coupled agarose beads (remaining sphingosine in the supernatant)” value with RV1b was “efficiently bind sphingosine”. Moreover, the “binding of pp-VSV-SARS-CoV-2 to the cell surface” value in the series with pp-VSV-SARS-CoV-2 was “prevented binding of pp-VSV-SARS-CoV-2 to the cell surface”.
